Experimental data: patent US10780090B2, “Heteroaryl compounds useful as inhibitors of SUMO activating enzyme” (Millennium Pharmaceuticals, Inc., priority 2014, dated 2020)

Target: recombinant human SAE enzyme (Homo sapiens (Human), UniProt Q9UBT2)
Assay: SAE HTRF enzyme assay
Format: biochemical
Conditions: for inhibition at 0.111 µM: read-out: Percent Inhibition
In short: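 HTRF read-out using Eu-cryptate anti-Flag and allophycocyanin anti-GST antibodies, added with EDTA stop buffer and read after 2 h at 24 °C. The preceding reaction ran 105 min at 24 °C: 0.11 nM recombinant SAE, 0.5 μM ATP, Sumo-Flag, Ubc9-GST, pH 7.5. Values given as single-concentration inhibition or IC50.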

[1] = SAE inhibition at compound concentration 0.111 μM
[2] = SAE inhibition, class symbols, legend in nM

Chain of recombinant human SAE enzyme (Q9UBT2 whole entry): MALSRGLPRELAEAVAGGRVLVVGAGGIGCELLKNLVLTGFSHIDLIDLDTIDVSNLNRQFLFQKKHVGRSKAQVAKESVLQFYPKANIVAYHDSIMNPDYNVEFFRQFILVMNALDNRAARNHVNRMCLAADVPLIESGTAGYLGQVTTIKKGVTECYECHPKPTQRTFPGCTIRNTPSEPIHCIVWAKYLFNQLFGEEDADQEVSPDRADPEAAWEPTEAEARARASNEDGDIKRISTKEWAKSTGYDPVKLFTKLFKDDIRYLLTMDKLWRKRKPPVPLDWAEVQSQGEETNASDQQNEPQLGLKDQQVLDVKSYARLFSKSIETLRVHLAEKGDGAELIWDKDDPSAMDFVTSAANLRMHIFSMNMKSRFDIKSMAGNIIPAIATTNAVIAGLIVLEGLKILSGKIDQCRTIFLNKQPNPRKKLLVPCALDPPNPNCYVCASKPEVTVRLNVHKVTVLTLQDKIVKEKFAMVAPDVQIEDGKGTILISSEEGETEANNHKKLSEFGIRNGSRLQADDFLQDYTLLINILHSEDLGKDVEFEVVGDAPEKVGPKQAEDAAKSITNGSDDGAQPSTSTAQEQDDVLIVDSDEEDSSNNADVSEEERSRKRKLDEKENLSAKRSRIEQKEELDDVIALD
Chain of recombinant human SAE enzyme (Q9UBE0 whole entry partner): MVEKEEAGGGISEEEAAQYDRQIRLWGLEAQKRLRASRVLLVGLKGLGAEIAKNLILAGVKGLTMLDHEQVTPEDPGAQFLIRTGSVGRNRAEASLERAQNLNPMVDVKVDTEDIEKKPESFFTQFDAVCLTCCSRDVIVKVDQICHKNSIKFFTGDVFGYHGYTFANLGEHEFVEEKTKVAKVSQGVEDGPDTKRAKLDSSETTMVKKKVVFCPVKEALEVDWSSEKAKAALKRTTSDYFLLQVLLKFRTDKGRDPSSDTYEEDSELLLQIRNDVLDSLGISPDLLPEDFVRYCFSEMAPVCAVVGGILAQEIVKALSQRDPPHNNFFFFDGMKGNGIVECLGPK

SMILES	inhibition at 0.111 µM (Concentration 0.111 μM)	IC50 (class symbols A/B/C)	Percent Inhibition (Concentration 0.111 μM)	Percent Inhibition [1]	IC50 [2]
CSc1cccc(Cc2csc(C(=O)c3cncnc3N[C@@H]3C[C@H](COS(N)(=O)=O)[C@@H](O)C3)c2)c1 [I-81, [(1R,2S,4R)-2-hydroxy-4-{[5-({4-[3-(methylsulfanyl)benzyl]-2-thienyl}carbonyl)pyrimidin-4-yl]amino}cyclopentyl]methyl sulfamate]	98%	< 10 nM			
NS(=O)(=O)OC[C@H]1C[C@@H](Nc2ncncc2C(=O)c2cc(C(=O)c3cccc(Cl)c3)c(Cl)s2)C[C@@H]1O [I-207, {(1R,2S,4R)-4-[(5-{[5-Chloro-4-(3-chlorobenzoyl)-2-thienyl]carbonyl}pyrimidin-4-yl)amino]-2-hydroxycyclopentyl}methyl sulfamate]	51%	100 to 1000 nM			
N[C@H](c1cccc(Cl)c1)c1cc(C(=O)c2cncnc2N[C@@H]2C[C@H](COS(N)(=O)=O)[C@@H](O)C2)sc1Cl (single isomer, unassigned) [I-15b, [(1R,2S,4R)-4-{[5-({4-[(R)-amino(3-chlorophenyl)methyl]-5-chloro-2-thienyl}carbonyl)pyrimidin-4-yl]amino}-2-hydroxycyclopentyl]methyl sulfamate or [(1R,2S,4R)-4-{[5-({4-[(S)-amino(3-chlorophenyl)methyl]-5-chloro-2-thienyl}carbonyl)pyrimidin-4-yl]amino}-2-hydroxycyclopentyl]methyl sulfamate]		< 10 nM	100		
CC(N)(c1cccc(Cl)c1)c1csc(C(=O)c2cncnc2NC2CC(O)C(COS(N)(=O)=O)C2)c1 (mixture of isomers) [I-12, [(1R,2S,4R)-4-{[5-({4-[(1S)-1-amino-1-(3-chlorophenyl)ethyl]-2-thienyl}carbonyl)pyrimidin-4-yl]amino}-2-hydroxycyclopentyl]methyl sulfamate and [(1R,2S,4R)-4-{[5-({4-[(1R)-1-amino-1-(3-chlorophenyl)ethyl]-2-thienyl}carbonyl)pyrimidin-4-yl]amino}-2-hydroxycyclopentyl]methyl sulfamate]		< 10 nM	99		
Cc1sc(C(=O)c2cncnc2N[C@@H]2C[C@H](COS(N)(=O)=O)[C@@H](O)C2)cc1[C@H]1NCCc2ccccc21 (single isomer, unassigned) [I-292a, [(1R,2S,4R)-2-hydroxy-4-{[5-({5-methyl-4-[(1S)-1,2,3,4-tetrahydroisoquinolin-1-yl]-2-thienyl}carbonyl)pyrimidin-4-yl]amino}cyclopentyl]methyl sulfamate or [(1R,2S,4R)-2-hydroxy-4-{[5-({5-methyl-4-[(1R)-1,2,3,4-tetrahydroisoquinolin-1-yl]-2-thienyl}carbonyl)pyrimidin-4-yl]amino}cyclopentyl]methyl sulfamate]				99%	< 10 nM
Cc1oc(C(=O)c2cncnc2N[C@@H]2C[C@H](COS(N)(=O)=O)[C@@H](O)C2)cc1[C@@H]1OCCc2ccc(Cl)cc21 (single isomer, unassigned) [I-270b, {(1R,2S,4R)-4-[(5-{4-[(1R)-7-chloro-3,4-dihydro-1H-isochromen-1-yl]-5-methyl-2-furoyl}pyrimidin-4-yl)amino]-2-hydroxycyclopentyl}methyl sulfamate or {(1R,2S,4R)-4-[(5-{4-[(1S)-7-chloro-3,4-dihydro-1H-isochromen-1-yl]-5-methyl-2-furoyl}pyrimidin-4-yl)amino]-2-hydroxycyclopentyl}methyl sulfamate]		< 10 nM	99		
NS(=O)(=O)OC[C@H]1C[C@@H](Nc2ncncc2C(=O)c2cc(Cc3ccccc3)c(Cc3ccccc3)o2)C[C@@H]1O [I-139, [(1R,2S,4R)-4-{[5-(4,5-dibenzyl-2-furoyl)pyrimidin-4-yl]amino}-2-hydroxycyclopentyl]methyl sulfamate]	94%	< 10 nM			
Cc1sc(C(=O)c2cncnc2N[C@@H]2C[C@H](COS(N)(=O)=O)[C@@H](O)C2)cc1[C@@H]1OCCc2ccc(CN(C)C)cc21 (mixture of isomers) [I-329, [(1R,2S,4R)-4-({5-[(4-{(1R)-7-[(dimethylamino)methyl]-3,4-dihydro-1H-isochromen-1-yl}-5-methyl-2-thienyl)carbonyl]pyrimidin-4-yl}amino)-2-hydroxycyclopentyl]methyl sulfamate and [(1R,2S,4R)-4-({5-[(4-{(1S)-7-[(dimethylamino)methyl]-3,4-dihydro-1H-isochromen-1-yl}-5-methyl-2-thienyl)carbonyl]pyrimidin-4-yl}amino)-2-hydroxycyclopentyl]methyl sulfamate]				36%	100 to 1000 nM
CC(=O)c1cc(C(=O)c2cncnc2N[C@@H]2C[C@H](COS(N)(=O)=O)[C@@H](O)C2)sc1Cl [I-242, [(1R,2S,4R)-4-{(5-[(4-Acetyl-5-chloro-2-thienyl)carbonyl]pyrimidin-4-yl}amino)-2-hydroxycyclopentyl]methyl sulfamate]	25%	100 to 1000 nM			
NS(=O)(=O)OC[C@H]1C[C@@H](Nc2ncncc2C(=O)c2cc(C3SCCc4ccc(Cl)cc43)cs2)C[C@@H]1O (single isomer, unassigned) [I-320b, [(1R,2S,4R)-4-{[5-({4-[(1R)-7-chloro-3,4-dihydro-1H-isothiochromen-1-yl]-2-thienyl}carbonyl)pyrimidin-4-yl]amino}-2-hydroxycyclopentyl]methyl sulfamate or [(1R,2S,4R)-4-{[5-({4-[(1S)-7-chloro-3,4-dihydro-1H-isothiochromen-1-yl]-2-thienyl}carbonyl)pyrimidin-4-yl]amino}-2-hydroxycyclopentyl]methyl sulfamate]				93%	< 10 nM
Cc1sc(C(=O)c2cncnc2N[C@@H]2C[C@H](COS(N)(=O)=O)[C@@H](O)C2)cc1[C@H]1OCC(F)(F)c2ccc(Cl)nc21 (single isomer, unassigned) [I-260b, [(1R,2S,4R)-4-{[5-({4-[(8R)-2-chloro-5,5-difluoro-5,8-dihydro-6H-pyrano[3,4-b]pyridin-8-yl]-5-methyl-2-thienyl}carbonyl)pyrimidin-4-yl]amino}-2-hydroxycyclopentyl]methyl sulfamate or [(1R,2S,4R)-4-{[5-({4-[(8S)-2-chloro-5,5-difluoro-5,8-dihydro-6H-pyrano[3,4-b]pyridin-8-yl]-5-methyl-2-thienyl}carbonyl)pyrimidin-4-yl]amino}-2-hydroxycyclopentyl]methyl sulfamate]		< 10 nM	98		
Cc1sc(C(=O)c2cncnc2N[C@@H]2C[C@H](COS(N)(=O)=O)[C@@H](O)C2)cc1[C@H]1NCCc2ccc(Br)cc21 (single isomer, unassigned) [I-248b, [(1R,2S,4R)-4-{[5-({4-[(1S)-7-bromo-1,2,3,4-tetrahydroisoquinolin-1-yl]-5-methyl-2-thienyl}carbonyl)pyrimidin-4-yl]amino}-2-hydroxycyclopentyl]methyl sulfamate or [(1R,2S,4R)-4-{[5-({4-[(1R)-7-bromo-1,2,3,4-tetrahydroisoquinolin-1-yl]-5-methyl-2-thienyl}carbonyl)pyrimidin-4-yl]amino}-2-hydroxycyclopentyl]methyl sulfamate]		< 10 nM	95		
NS(=O)(=O)OC[C@H]1C[C@@H](Nc2ncncc2C(=O)c2cc([C@H]3NCCc4ccccc43)c(Cl)s2)[C@H](O)[C@@H]1O (mixture of isomers) [I-302, [(1R,2R,3S,4R)-4-{[5-({5-chloro-4-[(1S)-1,2,3,4-tetrahydroisoquinolin-1-yl]-2-thienyl}carbonyl)pyrimidin-4-yl]amino}-2,3-dihydroxycyclopentyl]methyl sulfamate and [(1R,2R,3S,4R)-4-{[5-({5-chloro-4-[(1R)-1,2,3,4-tetrahydroisoquinolin-1-yl]-2-thienyl}carbonyl)pyrimidin-4-yl]amino}-2,3-dihydroxycyclopentyl]methyl sulfamate]				100%	< 10 nM
CC(O)(c1cccc(Cl)c1)c1csc(C(=O)c2cncnc2N[C@@H]2C[C@H](COS(N)(=O)=O)[C@@H](O)C2)c1 (single isomer, unassigned) [I-5a, [(1R,2S,4R)-4-{[5-({4-[(1R)-1-(3-chlorophenyl)-1-hydroxyethyl]-2-thienyl}carbonyl)pyrimidin-4-yl]amino}-2-hydroxycyclopentyl]methyl sulfamate or [(1R,2S,4R)-4-{[5-({4-[(1S)-1-(3-chlorophenyl)-1-hydroxyethyl]-2-thienyl}carbonyl)pyrimidin-4-yl]amino}-2-hydroxycyclopentyl]methyl sulfamate]		10 to 100 nM	86		
Cc1nc2c(s1)[C@H](c1cc(C(=O)c3cncnc3N[C@@H]3C[C@H](COS(N)(=O)=O)[C@@H](O)C3)sc1C)OCC2 (single isomer, unassigned) [I-305a, [(1R,2S,4R)-2-hydroxy-4-{[5-({5-methyl-4-[(4S)-2-methyl-6,7-dihydro-4H-pyrano[4,3-d][1,3]thiazol-4-yl]-2-thienyl}carbonyl)pyrimidin-4-yl]amino}cyclopentyl]methyl sulfamate or [(1R,2S,4R)-2-hydroxy-4-{[5-({5-methyl-4-[(4R)-2-methyl-6,7-dihydro-4H-pyrano[4,3-d][1,3]thiazol-4-yl]-2-thienyl}carbonyl)pyrimidin-4-yl]amino}cyclopentyl]methyl sulfamate]				28%	100 to 1000 nM
CC(O)(c1cccc(Br)c1)c1csc(C(=O)c2cncnc2N[C@@H]2C[C@H](COS(N)(=O)=O)[C@@H](O)C2)c1 (single isomer, unassigned) [I-3a, [(1R,2S,4R)-4-{[5-({4-[(1R)-1-(3-bromophenyl)-1-hydroxyethyl]-2-thienyl}carbonyl)pyrimidin-4-yl]amino}-2-hydroxycyclopentyl]methyl sulfamate or [(1R,2S,4R)-4-{[5-({4-[(1S)-1-(3-bromophenyl)-1-hydroxyethyl]-2-thienyl}carbonyl)pyrimidin-4-yl]amino}-2-hydroxycyclopentyl]methyl sulfamate]		10 to 100 nM	92		
